Usually Ki stands for the dissociation constant of the complex between target and ligand, obtained from inhibition or displacement.

Structures are written as SMILES.

This experiment deals with Voltage-dependent L-type calcium channel subunit alpha-1C (Rattus norvegicus, UniProt P22002). As to the kind of experiment: Displacement of [3H](+)-PN200-110 binding from calcium channels of rat cardiac membranes. The class given is cell membranes, Membrane. In general terms: In a radioligand displacement assay an active substance lowers the binding of a labelled ligand.
Sequence of Voltage-dependent L-type calcium channel subunit alpha-1C (P22002 whole entry): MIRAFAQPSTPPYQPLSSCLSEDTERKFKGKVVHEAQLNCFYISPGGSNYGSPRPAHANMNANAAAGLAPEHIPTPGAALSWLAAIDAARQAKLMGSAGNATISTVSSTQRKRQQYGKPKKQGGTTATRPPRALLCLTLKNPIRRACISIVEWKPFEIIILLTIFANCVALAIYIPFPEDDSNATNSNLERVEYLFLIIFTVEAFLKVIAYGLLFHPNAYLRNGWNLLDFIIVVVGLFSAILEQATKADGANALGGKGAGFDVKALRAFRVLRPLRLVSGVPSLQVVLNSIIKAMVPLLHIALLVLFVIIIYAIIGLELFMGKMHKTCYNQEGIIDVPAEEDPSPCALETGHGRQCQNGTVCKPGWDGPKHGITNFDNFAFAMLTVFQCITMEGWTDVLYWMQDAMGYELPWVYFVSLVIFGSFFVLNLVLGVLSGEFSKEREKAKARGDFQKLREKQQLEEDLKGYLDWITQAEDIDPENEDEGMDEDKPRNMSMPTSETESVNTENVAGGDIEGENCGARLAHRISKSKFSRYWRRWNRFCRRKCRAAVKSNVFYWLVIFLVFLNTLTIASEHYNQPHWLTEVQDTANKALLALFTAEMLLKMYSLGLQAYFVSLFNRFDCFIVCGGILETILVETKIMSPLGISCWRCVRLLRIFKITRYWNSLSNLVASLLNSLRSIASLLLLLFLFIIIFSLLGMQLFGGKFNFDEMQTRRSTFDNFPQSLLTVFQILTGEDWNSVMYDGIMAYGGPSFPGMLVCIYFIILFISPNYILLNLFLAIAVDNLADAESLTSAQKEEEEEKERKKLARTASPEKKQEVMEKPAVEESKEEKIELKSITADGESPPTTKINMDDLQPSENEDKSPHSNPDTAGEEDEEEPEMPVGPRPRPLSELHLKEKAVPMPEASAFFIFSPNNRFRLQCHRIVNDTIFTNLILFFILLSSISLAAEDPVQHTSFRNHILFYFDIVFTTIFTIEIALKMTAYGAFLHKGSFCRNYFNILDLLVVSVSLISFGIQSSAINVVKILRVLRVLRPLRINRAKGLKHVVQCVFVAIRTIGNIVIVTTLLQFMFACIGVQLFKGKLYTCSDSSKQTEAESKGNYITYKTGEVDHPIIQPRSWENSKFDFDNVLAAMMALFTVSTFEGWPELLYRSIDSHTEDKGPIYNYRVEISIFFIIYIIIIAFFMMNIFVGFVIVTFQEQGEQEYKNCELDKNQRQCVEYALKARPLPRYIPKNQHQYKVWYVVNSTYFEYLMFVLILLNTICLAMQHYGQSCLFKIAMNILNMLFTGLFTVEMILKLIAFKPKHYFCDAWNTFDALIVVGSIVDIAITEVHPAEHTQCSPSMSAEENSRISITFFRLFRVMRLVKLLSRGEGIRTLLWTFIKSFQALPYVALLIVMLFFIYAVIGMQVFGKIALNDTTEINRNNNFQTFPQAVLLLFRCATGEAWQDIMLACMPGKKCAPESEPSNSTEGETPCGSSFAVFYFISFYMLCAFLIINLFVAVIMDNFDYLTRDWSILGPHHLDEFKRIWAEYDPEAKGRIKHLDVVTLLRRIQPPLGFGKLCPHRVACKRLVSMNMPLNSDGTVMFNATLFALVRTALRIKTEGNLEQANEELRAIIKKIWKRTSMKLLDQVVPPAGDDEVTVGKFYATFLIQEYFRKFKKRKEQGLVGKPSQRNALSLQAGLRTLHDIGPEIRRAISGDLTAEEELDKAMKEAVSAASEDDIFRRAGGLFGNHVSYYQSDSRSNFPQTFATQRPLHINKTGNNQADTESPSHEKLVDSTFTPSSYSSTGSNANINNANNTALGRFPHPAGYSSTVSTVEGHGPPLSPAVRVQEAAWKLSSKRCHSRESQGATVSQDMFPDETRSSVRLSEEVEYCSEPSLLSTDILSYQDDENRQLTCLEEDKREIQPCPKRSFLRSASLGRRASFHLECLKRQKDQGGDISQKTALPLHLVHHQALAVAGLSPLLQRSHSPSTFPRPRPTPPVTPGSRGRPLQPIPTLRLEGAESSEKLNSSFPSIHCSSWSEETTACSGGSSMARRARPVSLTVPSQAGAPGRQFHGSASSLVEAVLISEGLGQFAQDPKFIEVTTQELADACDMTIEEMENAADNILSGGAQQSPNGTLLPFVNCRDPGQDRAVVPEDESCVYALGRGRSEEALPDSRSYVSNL
Regarding `CCOC(=O)C1=C(C)N=C(C)/C(=C(/O)OCC)C1c1c(C)noc1CCc1ccc2ccccc2c1` (stereo not drawn), the Ki was 10.7 nM.

For `CCOC(=O)C1=C(C)N=C(C)/C(=C(/O)OCC)C1c1c(C)noc1CCc1ccccc1-c1ccccc1` (stereo not drawn), the Ki came out at 45.5 nM.

As to `CCOC(=O)C1=C(C)N=C(C)/C(=C(/O)OCC)C1c1c(C)noc1CCc1cccc2ccccc12` (stereo not drawn), the Ki is 2.16 nM.

For the origin of these results see ChEMBL document CHEMBL1132339, “Lipophilic 4-isoxazolyl-1,4-dihydropyridines: synthesis and structure-activity relationships” (J Med Chem, 1999).
